From ChEMBL document CHEMBL4177632 (Bioorg Med Chem, 2017)

Key:
[1] = target: Aldo-keto reductase family 1 member A1 (Rattus norvegicus, UniProt P51635); test: Inhibition of ALR1 in Wistar rat kidney assessed as reduction in NADPH consumption preincubated for 1 min followed by substrate addition measured after 4 mins by spectrophotometric analysis
[2] = target: T1, Aldo-keto reductase family 1 member B1 (Rattus norvegicus, UniProt P07943); test: Inhibition of ALR2 in Wistar rat eye lens assessed as reduction in NADPH consumption preincubated for 1 min followed by D,L-glyceraldehyde addition measured after 4 mins by spectrophotometric analysis
[3] = target: T2, Aldo-keto reductase family 1 member B1 (Homo sapiens, UniProt P15121); test: Uncompetitive inhibition of recombinant human AKR1B1 using D,L-glyceraldehyde as substrate
[4] = target: T2, Aldo-keto reductase family 1 member B1; test: Inhibition of recombinant human AKR1B1 using D,L-glyceraldehyde as substrate
[5] = target: T1, Aldo-keto reductase family 1 member B1; test: Uncompetitive inhibition of ALR2 in Wistar rat eye lens assessed as reduction in NADPH consumption preincubated for 1 min followed by D,L-glyceraldehyde addition measured after 4 mins by spectrophotometric analysis
[6] = target: Aldo-keto reductase family 1 member B10 (Homo sapiens, UniProt O60218); test: Inhibition of recombinant human AKR1B10
Sequence of Aldo-keto reductase family 1 member B10 (O60218 whole entry): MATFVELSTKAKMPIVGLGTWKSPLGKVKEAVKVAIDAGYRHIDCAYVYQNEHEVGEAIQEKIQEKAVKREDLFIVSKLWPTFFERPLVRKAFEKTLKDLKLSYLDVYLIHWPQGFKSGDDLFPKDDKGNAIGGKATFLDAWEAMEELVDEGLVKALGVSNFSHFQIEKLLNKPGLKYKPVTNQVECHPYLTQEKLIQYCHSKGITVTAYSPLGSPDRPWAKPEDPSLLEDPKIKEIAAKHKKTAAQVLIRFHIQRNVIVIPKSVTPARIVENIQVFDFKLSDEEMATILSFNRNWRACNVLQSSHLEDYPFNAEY

Sequence of Aldo-keto reductase family 1 member A1 (P51635 whole entry, looked up): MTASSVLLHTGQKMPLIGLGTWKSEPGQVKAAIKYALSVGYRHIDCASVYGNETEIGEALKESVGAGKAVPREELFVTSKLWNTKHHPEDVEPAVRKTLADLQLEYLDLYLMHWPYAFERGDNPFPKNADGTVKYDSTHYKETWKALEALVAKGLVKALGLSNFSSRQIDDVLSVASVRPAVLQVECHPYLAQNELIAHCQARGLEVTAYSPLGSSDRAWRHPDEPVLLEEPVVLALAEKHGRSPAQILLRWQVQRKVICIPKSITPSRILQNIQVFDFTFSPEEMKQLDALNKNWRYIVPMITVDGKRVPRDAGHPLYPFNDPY

Row | SMILES | IC50 [1] [µM] | IC50 [2] [µM] | Ki [3] [µM] | IC50 [4] [µM] | Ki [5] [µM] | IC50 [6] [µM]
1 | Cc1c(C=O)c2ccccc2n1CC(=O)O | 11.8 | 0.34 | – | – | – | –
2 | CC(=O)N1CCc2c(c3ccccc3n2CC(=O)O)C1 | 21.9 | 0.0205 | – | – | – | –
3 | CC(C)N1CCc2c(c3ccccc3n2CC(=O)O)C1 | > 100 | 34.2 | – | – | – | –
4 | CCOC(=O)N1CCc2c(c3cc(OC)ccc3n2CC(=O)O)C1 | 9.98 | 0.0126 | 0.0661 | 0.0835 | 0.0169 | 9.43
5 | CC(=O)c1c(C)n(CC(=O)O)c2ccccc12 | 11.2 | 0.169 | – | – | – | –
6 | O=C(O)Cn1c2c(c3ccccc31)CN(C(=O)C1CC1)CC2 | 7.54 | 0.0575 | – | – | – | –
7 | CCOC(=O)N1CCc2c(c3cc(C(=O)O)ccc3n2CC(=O)O)C1 | 4.84 | 0.0127 | – | – | – | –
